Measured values reported in PMC11738990, “A small-molecule TNIK inhibitor targets fibrosis in preclinical and clinical models” (Nature Biotechnology, 2024).
Where “and” joins values, the source holds several entries; their conditions need not be identical. Equal values may be shown once.

Experiments:
[1] = test system: C57BL/6 mice; assay: LPS-induced acute lung injury model; type: in vivo, mouse; conditions: individual animals, Fig 3E-F;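 further: bronchoalveolar lavage fluid sampled one day after intratracheal LPS challenge, cytokines measured by ELISA in supernatant, lymphocytes counted on Diff-Quick stained cytospin smears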
Procedure: One day before the first experimental day, animals were grouped. All mice were anesthetized with Zoletil–xylazine (50 mpk and 10 mpk, i.p.). At 0 h, mice received LPS at a dose of 50 μl as 50 μg per mouse (groups 2–5, n = 8 per group) or 50 μl saline (group 1, n = 8 per group) by intratracheal administration. […] In the dexamethasone group (group 5), animals were treated with dexamethasone both 2 h before and 4 h after the LPS challenge. Twenty-four hours after the LPS challenge, animals were euthanized, and BALF samples were collected.
Mice were first anesthetized with Zoletil–xylazine (50 mpk and 10 mpk, i.p.). Next, a 1.5–2-cm longitudinal incision was made on the ventral side of the neck to expose the trachea by blunt dissection, and curved forceps were placed underneath the trachea. A 10–12-cm piece of suture was then threaded underneath the trachea using forceps. The ends of the suture were then pulled cranially to ‘stretch’ the trachea toward the surgeon. A 20-G needle was then used to poke a hole in the trachea as close to the larynx as possible. A 22-G blunt stainless steel needle connected to PE tubing was placed in the hole and inserted approximately 5–8 mm into the trachea. The cannula was secured in the trachea by tying the suture around it with an overhand knot. A 1-ml syringe containing 0.4 ml saline was gently pushed forward and backward three times to recover BALF fluid. BALF was transferred into empty tubes and stored on ice. This process was repeated twice with 0.3 ml saline for a total volume of 1 ml.
Total cell numbers were counted with a standard hemocytometer by mixing 20 μl BALF with 20 μl trypan blue. Cytospins were prepared by cytocentrifugation using Cytospins at 106g for 5 min, and then smears of BALF cells were stained with Diff-Quick stain. Cell differentiation was performed by counting at least 400 cells using standard hemocytologic criteria to classify them as alveolar macrophages or monocytes, neutrophils, eosinophils or lymphocytes. The rest of the BALF fluid was centrifuged, and supernatants were collected and stored at −80 °C for cytokine, chemokine and total protein analysis.
From the collected BALF, concentrations of cytokines were measured from mice in groups 2–7 killed on day 28. Mouse BALF cytokines and chemokines were measured using the ELISA Analysis Kit (Sinobest Bio). Mouse BALF soluble collagen was measured using the Soluble Collagen kit (Biocolor). Mouse lung hydroxyproline content was measured using the Hydroxyproline Assay Kit (Njjcbio).

[2] = test system: primary bronchial epithelial cells from healthy donors; assay: EMT by FN1, high-content analysis; type: cell-based, human; conditions: three healthy individuals
Procedure: For the measurement of EMT by FN1, on the first day, human primary bronchial epithelial cells were seeded. After 2 d, the medium of the cells was refreshed. […] After 1 h, all cells were treated with 5 ng ml^−1 TGF-β1. On the ninth day (72 h after triggering), cells were fixed with 4% formaldehyde, stained for FN1 and with DAPI and then imaged and quantified via HCA (IN Cell Analyzer 2200, GE Healthcare).
Segmentation and quantification of α-SMA and FN1 immunoreactivity was carried out with an HCA algorithm, with density × area (D × A) output. Data normalization of raw α-SMA or FN1 (D × A) to percent inhibition values was performed on a plate-to-plate basis.
[…]
μp is the average α-SMA or FN1 value of the positive control (TGF-β1 + 1 μM SB525334). μn is the average α-SMA or FN1 value of the vehicle control (TGF-β1 + 0.1% DMSO). Xi is the compound α-SMA or FN1 value. IC50 values for all compounds (if calculable, based on the point of inflection) were calculated with GraphPad Prism using non-linear fit of log (inhibitor) versus response (four parameter).
DAPI fluorescence was applied for HCA-based quantification of the number of imaged cells on a plate-to-plate basis.
Percent remaining cells = (Xi/μn) × 100%
μn is the average number of nuclei of the vehicle control (TGF-β1 + 0.1% DMSO). Xi is the compound number of nuclei.

[3] = G4 INS018_055 3mpk BID, 3 mg/kg
[4] = G5 INS018_055 10mpk BID, 10 mg/kg
[5] = G7 INS018_055 20mpk QD, 20 mg/kg

With `CC(C)n1cnc(-c2ccc(F)cc2)c1-c1nc(C(=O)Nc2ccc(N3CCN(C)CC3)cc2)c[nH]1` [INS018_055, 2-[4-(4-fluorophenyl)-1-(prop-2-yl)imidazol-5-yl]-N-[4-(4-methylhexahydropyrazin-1-yl)phenyl]-1H-imidazole-4-carboxamide] the IL-1β [1, 3] was 76.808 and 90.9173 and 84.4347 and 88.6293 and 81.7653 and 68.4187 and 91.2987 and 66.512, the IL-4 [1, 3] was 44.4779 and 48.864 and 44.3266 and 42.2092 and 40.6967 and 44.6291 and 41.1504 and 43.4191 and the IL-6 [1, 3] was 23.78 and 22.3 and 25.4 and 24.37 and 27.02 and 28.05 and 25.54 and 22.45. For the same compound, the IL-7 [1, 3] was 29.29 and 30.58 and 25.61 and 25.43 and 23.95 and 22.3 and 26.16 and 33.16, the Lymphocytes [1, 3] was 9000 and 7000 and 5750 and 18000 and 15600 and 4800 and 11200 and 5600 and the TNF-alpha [1, 3] was 286.33 and 268.83 and 288.52 and 360.7 and 260.08 and 336.64 and 303.83 and 209.77. For the same compound, the IL-1β [1, 4] was 66.512 and 53.5467 and 55.0721 and 69.944 and 59.2667 and 64.2241 and 56.5974, the IL-4 [1, 4] was 47.5028 and 53.8551 and 49.9227 and 42.8141 and 45.5366 and 45.0828 and 51.2839 and 46.8978 and the IL-6 [1, 4] was 20.39 and 23.04 and 25.84 and 22.45 and 25.99 and 18.47 and 19.8. The IL-7 [1, 4] was 19.9 and 17.14 and 19.72 and 14.2 and 24.69 and 21.38 and 23.4 and 26.72, the Lymphocytes [1, 4] was 19800 and 10350 and 7200 and 6000 and 5400 and 8200 and 6450 and the TNF-alpha [1, 4] was 238.21 and 262.27 and 306.02 and 187.89 and 181.33 and 336.64 and 196.64 and 198.83. For the same compound, the IL-1β ([1]; G6 INS018_055 6mpk QD, 6 mg/kg) was 71.4694 and 80.24 and 88.248 and 64.6054 and 63.0801 and 87.104 and 80.6214, the IL-4 ([1]; G6 INS018_055 6mpk QD, 6 mg/kg) was 42.3604 and 46.7466 and 42.8141 and 44.4779 and 47.9565 and 44.7804 and 48.7128 and 38.7305 and the IL-6 ([1]; G6 INS018_055 6mpk QD, 6 mg/kg) was 27.31 and 23.19 and 22.45 and 27.76 and 33.8 and 25.99 and 28.93 and 26.87. The IL-7 ([1]; G6 INS018_055 6mpk QD, 6 mg/kg) was 27.82 and 30.4 and 27.08 and 33.16 and 21.19 and 31.69 and 25.8 and 28.37, the Lymphocytes ([1]; G6 INS018_055 6mpk QD, 6 mg/kg) was 5200 and 1650 and 3850 and 2700 and 5250 and 5500 and 2600 and the TNF-alpha ([1]; G6 INS018_055 6mpk QD, 6 mg/kg) was 290.7 and 236.02 and 376.01 and 218.52 and 330.08 and 244.77 and 391.33 and 310.39. The IL-1β [1, 5] was 62.6987 and 77.952 and 78.7147 and 61.5547 and 74.52 and 71.8507 and 60.7921 and 57.3601, the IL-4 [1, 5] was 48.1078 and 43.2679 and 48.4103 and 52.3427 and 52.0402 and 44.6291 and 51.7377 and 50.074 and the IL-6 [1, 5] was 22.74 and 25.84 and 21.71 and 18.17 and 26.58 and 23.63 and 22.15 and 25.69. For the same compound, the IL-7 [1, 5] was 16.59 and 21.38 and 22.67 and 18.98 and 27.45 and 24.14 and 31.32 and 16.04, the Lymphocytes [1, 5] was 6500 and 7200 and 8250 and 11600 and 6900 and 1650 and 6100 and 2700 and the TNF-alpha [1, 5] was 244.77 and 214.14 and 279.77 and 218.52 and 163.83 and 341.01 and 179.15 and 292.89. For the same compound, the IC50 [2] was 63 nM (2×) and 500 nM.
